Data on two molecules can be found in PMC10099813, “Stafiba: A STAT5‐Selective Small‐Molecule Inhibitor” (Chembiochem, 2022).

Assay [1] deals with STAT3 (Homo sapiens, UniProt P40763). Description: Competitive fluorescence polarization (FP) binding assay, STAT3. The following applies: 2 % DMSO for 5, 10 % DMSO for 10. On the procedure: (§1) Fluorescence polarization assays: Competitive binding assays based on fluorescence polarization were carried out essentially as previously described.[[4a]] Unless stated otherwise, final concentrations of the buffer components were: 10 mM Tris (pH 8.0), 50 mM NaCl, 1 mM EDTA, 1 mM DTT, 0.1 % (v/v) Nonidet P‐40 substitute, and 2 % DMSO. Proteins were used at concentrations which reflect the Kd values of the interactions between the fluoropeptide and the protein preparations. Protein concentrations used for activity analysis of compound 5 were 91 nM for STAT1, 107 nM for STAT3, 28 nM for STAT4, 122 nM for STAT5a, 56 nM for STAT5b and 101 nM for STAT6. Protein concentrations used for activity analysis of AC‐4‐130 were 103 nM for STAT5a and 62 nM for STAT5b. […] Final concentration of all fluorescent‐labelled peptides was 10 nM. The following peptides were used in assays: 5‐carboxyfluorescein‐GpYDKPHVL for STAT1; 5‐carboxyfluorescein‐GpYLPQTV‐NH2 for STAT3; 5‐carboxyfluorescein‐GpYLPQNID for STAT4; 5‐carboxyfluorescein‐GpYLVLDKW for STAT5a/5b, and 5‐carboxyfluorescein‐GpYVPWQDLI for STAT6. Protein and test compounds were incubated for 1 h prior to addition of the fluorescein‐labeled peptide. Fluorescence polarization was measured after another 60 min using an Infinite F500 plate reader (Tecan). IC50 values were converted to Ki‐values using the published equation.[13]
Sequence of STAT3 (P40763 whole entry, species assumed): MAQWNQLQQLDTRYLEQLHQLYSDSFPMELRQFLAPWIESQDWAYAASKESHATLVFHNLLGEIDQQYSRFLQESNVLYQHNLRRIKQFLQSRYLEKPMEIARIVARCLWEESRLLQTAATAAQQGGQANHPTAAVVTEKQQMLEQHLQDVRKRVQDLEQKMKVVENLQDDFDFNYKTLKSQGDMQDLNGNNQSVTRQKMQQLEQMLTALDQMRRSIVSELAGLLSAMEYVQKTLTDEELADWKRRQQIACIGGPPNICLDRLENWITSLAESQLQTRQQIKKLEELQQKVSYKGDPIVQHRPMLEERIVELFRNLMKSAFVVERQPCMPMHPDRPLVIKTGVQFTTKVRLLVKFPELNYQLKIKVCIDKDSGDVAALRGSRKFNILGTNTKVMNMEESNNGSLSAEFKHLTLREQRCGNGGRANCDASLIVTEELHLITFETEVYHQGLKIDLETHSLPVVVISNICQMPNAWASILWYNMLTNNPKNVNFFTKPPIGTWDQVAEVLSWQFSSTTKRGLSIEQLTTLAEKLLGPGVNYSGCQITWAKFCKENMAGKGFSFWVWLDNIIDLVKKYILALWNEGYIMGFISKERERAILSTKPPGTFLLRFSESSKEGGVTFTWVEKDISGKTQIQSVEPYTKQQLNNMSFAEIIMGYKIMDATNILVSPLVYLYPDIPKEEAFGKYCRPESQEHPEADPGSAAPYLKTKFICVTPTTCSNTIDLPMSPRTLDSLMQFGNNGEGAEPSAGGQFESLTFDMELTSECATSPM
In general terms: Polarisation of emitted light reports the rotation of a fluorescent probe.

Assay [2] concerns the target T1, STAT4 (Homo sapiens, UniProt Q14765).
T1 sequence (Q14765 1-748): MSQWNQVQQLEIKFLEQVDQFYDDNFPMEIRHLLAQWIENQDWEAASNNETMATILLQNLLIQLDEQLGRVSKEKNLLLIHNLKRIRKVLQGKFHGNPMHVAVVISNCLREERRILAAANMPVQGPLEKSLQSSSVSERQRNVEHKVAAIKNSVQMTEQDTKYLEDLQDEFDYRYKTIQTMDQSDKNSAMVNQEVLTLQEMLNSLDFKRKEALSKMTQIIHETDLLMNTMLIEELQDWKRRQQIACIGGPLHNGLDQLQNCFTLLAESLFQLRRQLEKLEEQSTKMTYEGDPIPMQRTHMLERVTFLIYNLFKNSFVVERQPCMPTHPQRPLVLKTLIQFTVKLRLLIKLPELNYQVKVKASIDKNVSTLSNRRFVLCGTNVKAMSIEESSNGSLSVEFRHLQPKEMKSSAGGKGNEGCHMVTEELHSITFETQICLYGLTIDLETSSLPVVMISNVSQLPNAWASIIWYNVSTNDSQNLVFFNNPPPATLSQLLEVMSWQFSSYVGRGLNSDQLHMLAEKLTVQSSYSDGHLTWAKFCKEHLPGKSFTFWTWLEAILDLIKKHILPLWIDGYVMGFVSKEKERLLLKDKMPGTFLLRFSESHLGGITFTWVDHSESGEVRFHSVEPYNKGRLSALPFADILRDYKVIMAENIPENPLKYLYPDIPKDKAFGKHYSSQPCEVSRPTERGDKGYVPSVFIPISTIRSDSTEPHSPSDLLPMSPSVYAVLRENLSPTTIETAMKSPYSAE
Description: Competitive fluorescence polarization (FP) binding assay, STAT4. The following applies: for IC50: 2 % DMSO for 5, 10 % DMSO for 10; for Ki: Ki calculated from IC50, 2 % DMSO for 5, 10 % DMSO for 10. On the procedure: as §1

Assay [3] has as its target T2, STAT6 (Homo sapiens, UniProt P42226).
T2 sequence (P42226 1-847): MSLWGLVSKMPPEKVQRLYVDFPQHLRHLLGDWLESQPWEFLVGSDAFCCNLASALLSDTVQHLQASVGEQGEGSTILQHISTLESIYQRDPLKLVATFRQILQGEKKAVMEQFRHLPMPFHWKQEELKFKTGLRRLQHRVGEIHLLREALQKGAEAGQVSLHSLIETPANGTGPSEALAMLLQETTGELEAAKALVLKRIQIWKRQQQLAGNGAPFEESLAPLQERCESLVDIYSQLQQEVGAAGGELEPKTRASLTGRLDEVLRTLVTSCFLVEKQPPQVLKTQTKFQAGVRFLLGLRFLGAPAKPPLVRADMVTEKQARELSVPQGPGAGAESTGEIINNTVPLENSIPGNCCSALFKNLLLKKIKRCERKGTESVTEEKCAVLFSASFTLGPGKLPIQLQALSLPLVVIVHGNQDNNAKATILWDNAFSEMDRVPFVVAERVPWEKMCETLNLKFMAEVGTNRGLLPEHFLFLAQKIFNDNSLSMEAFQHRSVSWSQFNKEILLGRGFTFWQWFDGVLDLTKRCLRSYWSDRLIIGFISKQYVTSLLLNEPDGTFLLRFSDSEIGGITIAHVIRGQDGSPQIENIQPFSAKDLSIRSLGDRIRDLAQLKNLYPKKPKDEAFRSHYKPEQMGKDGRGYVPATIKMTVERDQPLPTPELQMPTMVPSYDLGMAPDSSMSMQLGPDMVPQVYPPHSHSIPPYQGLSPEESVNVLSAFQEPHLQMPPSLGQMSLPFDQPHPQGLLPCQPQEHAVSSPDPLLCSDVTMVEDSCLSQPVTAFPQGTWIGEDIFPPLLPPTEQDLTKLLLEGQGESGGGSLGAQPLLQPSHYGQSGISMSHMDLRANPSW
Description: Competitive fluorescence polarization (FP) binding assay, STAT6. On the procedure:
as §1

One may read the inhibition as how much of the control response was suppressed. Read a high inhibition as a strong effect. In general, IC50 refers to the point on the concentration scale where inhibition reaches its midpoint. As a reminder, the Ki is the equilibrium dissociation constant of an inhibitor or competing ligand from its target. The molecule `O=C(CNc1ccc(C(=O)Nc2ccc(Oc3ccccc3)cc2)cc1)NCc1cc(C(F)(F)P(=O)(O)O)c(F)c(C(F)(F)P(=O)(O)O)c1` [compound 10] yielded an inhibition at 100 µM in assay [1] of 49 ± 3%. Besides, the IC50 is 11.2 ± 1.2 µM in assay [2] and 61.3 ± 2.7 µM in assay [3] (10 % DMSO). Moreover, the inhibition constant (Ki) in assay [2] is 5.3 ± 0.6 µM; in assay [3] (Ki calculated from IC50, 10 % DMSO), 30.1 ± 1.3 µM.
In the case of `O=C(CNc1ccc(C(=O)Nc2ccc(Oc3ccccc3)cc2)cc1)NCc1cc(OP(=O)(O)O)cc(OP(=O)(O)O)c1` [compound 5], at 100 µM the inhibition in assay [1] was 33 ± 11%. In assay [2], the 50% inhibitory concentration (IC50) came to 11.3 ± 2.7 µM and the Ki was 5.3 ± 1.3 µM. In assay [3] (100 µM, 2 % DMSO), this molecule yielded an inhibition at 100 µM of 48 ± 1%.
